Measurements: US20240239781A1, “1H-PYRAZOLE DERIVATIVES AS SIGMA LIGANDS” (ACONDICIONAMIENTO TARRASENSE, priority 2021, published 2024)

Tests used:
human σ2/TMEM97 receptor = target: T1, human σ2/TMEM97 receptor (Homo sapiens, UniProt Q5BJF2); assay: Binding assay to human σ2/TMEM97 receptor ([3H]-DTG, transfected HEK-293 membranes); settings: class scale, read-out: Binding σ-2 Ki
T1 construct: expressed in transfected cells; host or cells: HEK-293
Experimental: Transfected HEK-293 membranes (15 μg) were incubated with 10 nM [^3H]-1,3-Di-o-tolylguanidine (DTG) in assay buffer containing Tris-HCl 50 mM at pH 8.0. NSB (non-specific binding) was measured by adding 10 μM haloperidol. The binding of the test compound was measured at either one concentration (% inhibition at 1 or 10 μM) or five different concentrations to determine affinity values (Ki). Plates were incubated at 25° C. for 120 minutes. After the incubation period, the reaction mix was transferred to MultiScreen HTS, FC plates (Millipore), filtered and washed 3 times with ice-cold 10 mM Tris-HCL (pH 8.0). Filters were dried and counted at approximately 40% efficiency in a MicroBeta scintillation counter (Perkin-Elmer) using EcoScint liquid scintillation cocktail.

human σ1 receptor = target: T2, human σ1 receptor (Homo sapiens, UniProt Q99720); assay: Human σ1 receptor radioligand assay ([3H](+)-pentazocine, transfected HEK-293 membranes); settings: class scale, read-out: Binding σ-1 Ki
T2 construct: expressed in transfected cells; host or cells: HEK-293
Experimental: Transfected HEK-293 membranes (7 μg) were incubated with 5 nM of [^3H](+)-pentazocine in assay buffer containing Tris-HCl 50 mM at pH 8. NBS (non-specific binding) was measured by adding 10 μM haloperidol. The binding of the test compound was measured at either one concentration (% inhibition at 1 or 10 μM) or five different concentrations to determine affinity values (Ki). Plates were incubated at 37° C. for 120 minutes. After the incubation period, the reaction mix was then transferred to MultiScreen HTS, FC plates (Millipore), filtered and plates were washed 3 times with ice-cold 10 mM Tris-HCL (pH7.4). Filters were dried and counted at approximately 40% efficiency in a MicroBeta scintillation counter (Perkin-Elmer) using EcoScint liquid scintillation cocktail.

T1 sequence (Q5BJF2 whole entry): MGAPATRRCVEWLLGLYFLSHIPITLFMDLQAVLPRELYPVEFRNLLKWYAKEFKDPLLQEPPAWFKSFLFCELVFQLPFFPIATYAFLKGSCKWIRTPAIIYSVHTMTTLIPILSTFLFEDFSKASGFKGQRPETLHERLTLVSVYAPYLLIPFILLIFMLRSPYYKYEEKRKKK
T2 sequence (Q99720 whole entry): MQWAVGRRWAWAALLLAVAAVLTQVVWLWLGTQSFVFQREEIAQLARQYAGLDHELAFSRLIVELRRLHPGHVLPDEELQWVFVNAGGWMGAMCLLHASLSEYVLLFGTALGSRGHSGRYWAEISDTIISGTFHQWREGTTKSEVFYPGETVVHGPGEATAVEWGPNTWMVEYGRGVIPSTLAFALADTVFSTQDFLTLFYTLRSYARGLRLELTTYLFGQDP

Structure (SMILES)	Ki (human σ2/TMEM97 receptor)	Ki (human σ1 receptor)
Cc1cc(-c2nn(C)c(Cl)c2C(=O)N2CCCCC(NCc3ccccc3)C2)no1 (stereo not drawn) [Example 86, (3-(Benzylamino)azepan-1-yl)(5-chloro-1-methyl-3-(5-methylisoxazol-3-yl)-1H-pyrazol-4-yl)methanone]	0.1 to 0.5 µM	> 1 µM
CCc1cc(-c2nn(CC)c(Cl)c2C(=O)NC2CC3(CCN(CCC(C)(C)C)CC3)C2)no1 [Example 136, 5-Chloro-N-(7-(3,3-dimethylbutyl)-7-azaspiro[3.5]nonan-2-yl)-1-ethyl-3-(5-ethylisoxazol-3-yl)-1H-pyrazole-4-carboxamide]	< 0.1 µM	< 0.1 µM
Cc1cc(-c2nn(C)c(Cl)c2CN2CCCC(CNCc3ccccc3)C2)no1 (stereo not drawn) [Example 55, N-Benzyl-1-(1-((5-chloro-1-methyl-3-(5-methylisoxazol-3-yl)-1H-pyrazol-4-yl)methyl)piperidin-3-yl)methanamine]	0.1 to 0.5 µM	> 1 µM
Cc1cc(-c2nn(C)c(Cl)c2CC(=O)NC2CCN(CCC(C)(C)C)CC2)no1 [Example 220, 2-(5-Chloro-1-methyl-3-(5-methylisoxazol-3-yl)-1H-pyrazol-4-yl)-N-(1-(3,3-dimethylbutyl)piperidin-4-yl)acetamide]	< 0.1 µM	0.1 to 0.5 µM
CC(C)CCNC1CCCCN(Cc2c(-c3nccn3C)nn(C)c2Cl)C1 (stereo not drawn) [Example 32, 1-((5-Chloro-1-methyl-3-(1-methyl-1H-imidazol-2-yl)-1H-pyrazol-4-yl)methyl)-N-isopentylazepan-3-amine]	0.1 to 0.5 µM	> 1 µM
CCc1cc(-c2nn(C)c(Cl)c2CN2CCCCC(NCCC(C)C)C2)no1 (stereo not drawn) [Example 21, 1-((5-Chloro-3-(5-ethylisoxazol-3-yl)-1-methyl-1H-pyrazol-4-yl)methyl)-N-isopentylazepan-3-amine]	0.1 to 0.5 µM	0.5 to 1 µM
Cc1cc(-c2nn(C)c(Cl)c2CN2CCC3(CC2)CCN(CC(C)(C)C)CC3)no1 [Example 68, 3-(5-Chloro-1-methyl-4-((9-neopentyl-3,9-diazaspiro[5.5]undecan-3-yl)methyl)-1H-pyrazol-3-yl)-5-methylisoxazole]	< 0.1 µM	0.1 to 0.5 µM
CCn1nc(-c2cc(C)on2)c(C(=O)Nc2ccc3c(c2)CCN(CCC(C)(C)C)C3)c1Cl [Example 204, 5-Chloro-N-(2-(3,3-dimethylbutyl)-1,2,3,4-tetrahydroisoquinolin-6-yl)-1-ethyl-3-(5-methylisoxazol-3-yl)-1H-pyrazole-4-carboxamide]	< 0.1 µM	< 0.1 µM
Cc1cc(-c2nn(C)c(Cl)c2CN2CCC3(CC2)CCN(CCC(C)(C)C)C3)no1 [Example 50, 3-(5-Chloro-4-((2-(3,3-dimethylbutyl)-2,8-diazaspiro[4.5]decan-8-yl)methyl)-1-methyl-1H-pyrazol-3-yl)-5-methylisoxazole]	< 0.1 µM	0.1 to 0.5 µM
CCn1nc(-c2cc(C)on2)c(CN2CCCCC(NCCC(C)C)C2)c1Cl (stereo not drawn) [Example 14, 1-((5-Chloro-1-ethyl-3-(5-methylisoxazol-3-yl)-1H-pyrazol-4-yl)methyl)-N-isopentylazepan-3-amine]	> 1 µM	0.1 to 0.5 µM
CCn1nc(-c2cc(C)on2)c(C(=O)NC2CC3(CCN(CCC(C)(C)C)CC3)C2)c1Cl [Example 127, 5-Chloro-N-(7-(3,3-dimethylbutyl)-7-azaspiro[3.5]nonan-2-yl)-1-ethyl-3-(5-methylisoxazol-3-yl)-1H-pyrazole-4-carboxamide]	< 0.1 µM	< 0.1 µM
Cn1cc(-c2nn(C)c(Cl)c2C(=O)N2CCC3(CCN(CCC(C)(C)C)CC3)CC2)cn1 [Example 178, (5-Chloro-1,1′-dimethyl-1H,1′H-[3,4′-bipyrazol]-4-yl)(9-(3,3-dimethylbutyl)-3,9-diazaspiro[5.5]undecan-3-yl)methanone]	0.1 to 0.5 µM	> 1 µM
CCn1nc(-c2cc(C3CC3)on2)c(C(=O)N2CCC3(CCN(CCC(C)(C)C)CC3)CC2)c1Cl [Example 190, (5-Chloro-3-(5-cyclopropylisoxazol-3-yl)-1-ethyl-1H-pyrazol-4-yl)(9-(3,3-dimethylbutyl)-3,9-diazaspiro[5.5]undecan-3-yl)methanone]	< 0.1 µM	0.1 to 0.5 µM
Cc1cc(-c2nn(C)c(Cl)c2CN2CCC(CNCC(C)C)C2)no1 (stereo not drawn) [Example 49, N-((1-((5-Chloro-1-methyl-3-(5-methylisoxazol-3-yl)-1H-pyrazol-4-yl)methyl)pyrrolidin-3-yl)methyl)-2-methylpropan-1-amine]	> 1 µM	0.1 to 0.5 µM

Results, then the compound that gave them:

Ki (human σ2/TMEM97 receptor)	Ki (human σ1 receptor)	Structure (SMILES)
0.1 to 0.5 µM	0.5 to 1 µM	Cc1cc(-c2nn(C)c(Cl)c2CN2CCC(NCCC(C)C)C2)no1 (stereo not drawn) [Example 11, 1-((5-Chloro-1-methyl-3-(5-methylisoxazol-3-yl)-1H-pyrazol-4-yl)methyl)-N-isopentylpyrrolidin-3-amine]
< 0.1 µM	< 0.1 µM	CCn1nc(-c2cc(C)on2)c(C(=O)NC2CCC3(CC2)CCN(CCC(C)(C)C)CC3)c1Cl [Example 143, 5-Chloro-N-(3-(3,3-dimethylbutyl)-3-azaspiro[5.5]undecan-9-yl)-1-ethyl-3-(5-methylisoxazol-3-yl)-1H-pyrazole-4-carboxamide]
< 0.1 µM	< 0.1 µM	Cc1cc(-c2nn(C)c(Cl)c2C(=O)N2CCCC3(CCN(CCC(C)(C)C)CC3)C2)no1 [Example 92, (5-Chloro-1-methyl-3-(5-methylisoxazol-3-yl)-1H-pyrazol-4-yl)(9-(3,3-dimethylbutyl)-2,9-diazaspiro[5.5]undecan-2-yl)methanone]
0.1 to 0.5 µM	> 1 µM	Cc1cc(-c2nn(C)c(Cl)c2C(=O)N2CCC3(CCN(CC(=O)N4CCC(F)(F)CC4)CC3)CC2)no1 [Example 113, 2-(9-(5-Chloro-1-methyl-3-(5-methylisoxazol-3-yl)-1H-pyrazole-4-carbonyl)-3,9-diazaspiro[5.5]undecan-3-yl)-1-(4,4-difluoropiperidin-1-yl)ethanone]
> 1 µM	0.1 to 0.5 µM	Cc1cc(-c2nn(C)c(Cl)c2CN2CCCCC(NCCC(C)C)C2=O)no1 (stereo not drawn) [Example 117, 1-((5-Chloro-1-methyl-3-(5-methylisoxazol-3-yl)-1H-pyrazol-4-yl)methyl)-3-(isopentylamino)azepan-2-one]
< 0.1 µM	< 0.1 µM	Cc1cc(-c2nn(C)c(Cl)c2CN2CC[C@]3(CCN(CCC(C)(C)C)C3)C2)no1 [Example 69, (S)-3-(5-Chloro-4-((7-(3,3-dimethylbutyl)-2,7-diazaspiro[4.4]nonan-2-yl)methyl)-1-methyl-1H-pyrazol-3-yl)-5-methylisoxazole]
< 0.1 µM	< 0.1 µM	CCn1nc(-c2cc(C)on2)c(C(=O)N[C@@H]2CCN(CCC(C)(C)C)C2)c1Cl [Example 165, (R)-5-Chloro-N-(1-(3,3-dimethylbutyl)pyrrolidin-3-yl)-1-ethyl-3-(5-methylisoxazol-3-yl)-1H-pyrazole-4-carboxamide]
0.1 to 0.5 µM	0.5 to 1 µM	Cc1cc(-c2nn(C)c(Cl)c2CN2CCCC(CNCCc3ccccc3)C2)no1 (stereo not drawn) [Example 57, N-((1-((5-Chloro-1-methyl-3-(5-methylisoxazol-3-yl)-1H-pyrazol-4-yl)methyl)piperidin-3-yl)methyl)-2-phenylethanamine]
0.1 to 0.5 µM	> 1 µM	Cc1cc(-c2nn(C)c(Cl)c2C(=O)N2CCCCC(NCCc3ccccc3)C2)no1 (stereo not drawn) [Example 85, (5-Chloro-1-methyl-3-(5-methylisoxazol-3-yl)-1H-pyrazol-4-yl)(3-(phenethylamino)azepan-1-yl)methanone]
0.5 to 1 µM	> 1 µM	Cc1cc(-c2nn(C)c(Cl)c2C(=O)N2CCC[C@H](CNCCC(C)C)C2)no1 [Example 125, (R)-(5-Chloro-1-methyl-3-(5-methylisoxazol-3-yl)-1H-pyrazol-4-yl)(3-((isopentylamino)methyl)piperidin-1-yl)methanone]
< 0.1 µM	0.1 to 0.5 µM	CCn1nc(-c2cc(C)on2)c(C(=O)NCCC2CCN(CCC(C)(C)C)CC2)c1Cl [Example 158, 5-Chloro-N-(2-(1-(3,3-dimethylbutyl)piperidin-4-yl)ethyl)-1-ethyl-3-(5-methylisoxazol-3-yl)-1H-pyrazole-4-carboxamide]
< 0.1 µM	< 0.1 µM	CCn1nc(-c2ccon2)c(CC(=O)N2CCC3(CCN(CCC(C)(C)C)CC3)CC2)c1Cl [Example 209, 2-(5-Chloro-1-ethyl-3-(isoxazol-3-yl)-1H-pyrazol-4-yl)-1-(9-(3,3-dimethylbutyl)-3,9-diazaspiro[5.5]undecan-3-yl)ethan-1-one]
0.1 to 0.5 µM	0.1 to 0.5 µM	Cc1conc1-c1nn(C)c(Cl)c1CN1CCCCC(NCCC(C)C)C1 (stereo not drawn) [Example 28, 1-((5-Chloro-1-methyl-3-(4-methylisoxazol-3-yl)-1H-pyrazol-4-yl)methyl)-N-isopentylazepan-3-amine]
